Reference: patent US11098039B2, “Benzodiazepine product with activity on the central nervous and vascular systems” (UNIVERSIDAD DE LA HABANA, priority 2016, dated 2021)
Entries after “also recorded” stand apart in the source; their conditions may differ.

Key:
OF-1 mice = test: Memory loss induced by beta amyloid 25-35 peptide oligomers (in vivo); settings: JM-20 administered 7 days after beta amyloid administration; 10 and 30 mg/kg orally for 10 days; Aβ 100 pmol i.c.v.
Experimental: For the different studies JM-20 was suspended in carboxymethyl cellulose (CMC) 0.05% and administered orally. Scopolamine bromide was dissolved in the 0.9% saline solution and administered intraperitoneally (1 mg/kg, 4 mL/Kg of weight). Aluminum chloride was dissolved in common drinking water for the experimental subjects and administered orally in a 500 mg/Kg peso dose, in chronic form for one month and while behavioral studies were conducted. Beta amyloid peptides (25-35) were oligomerized and made soluble according to the manufacturer's norms and administered via intracerebroventricular means at 100 pmols in 5 uL, into the right cerebral hemisphere.
In vivo experiments corresponding to the scopolamine and aluminum model used Wistar rats (males, 230-260 g), while in vivo experiments corresponding to the beta amyloid model used OF-1 mice (males, 25-30 g). All the animals came from the National Laboratory Animal Production Center (CENPALAB, Mayabeque, Cuba) and after their arrival they underwent adaptation to laboratory conditions for 7 days. […]
Subsequently we conducted in vivo studies on OF-1 mice. We assessed the effect of JM-20 on memory loss induced by beta amyloid oligomers administered 7 days after the intracerebroventricular administration of Aβ (100 pmols) during 10 days, orally in 10 and 30 mg/kg weight doses. […]

CCI rats = test: Histology of sciatic nerve (Wallerian degeneration) in chronic constriction injury (CCI) model; format: in vivo; settings: JM-20 20 mg/Kg p.o., repeated doses for 7 days starting Day 7 post-CCI, 14 days after surgery, H/E and luxol fast blue
Source text: We studied the effect of JM-20 on the chronic constriction of the sciatic nerve model (CCI), an NP model (Bennett M I, Rayment C, Hjermstad M, Aass N, Caraceni A, Kaasa S. Prevalence and aetiology of neuropathic pain in cancer patients: A systematic review. Pain 2012; 153:359-365) Results are presented in FIG. 19-23.
A, B and C show the longitudinal section of the sciatic nerve 5 mm distal to the lesion on CCI Sham rats, CCI treated with JM-20 and treated with vehicle respectively (H/E coloration). We can observe the increase in cellularity in CCI animals relatively compared with sham operated animals as the result of the proliferation of Schawann cells and the infiltration of macrophages and the loss of an orderly alignment of axons associated to their myelin sheathes as compared to the sham-CCI. The arrow indicates one of the many digestion chambers of Schawann cells containing a myelin ovoid (reddish oval mass). D, E, F show sections from the same animals but they are colored by the luxol fast blue (LFB) technique, a specific technique for myelin tincture.

rats = test: 5% formalin test (tonic pain), Phase II; format: in vivo; settings: Phase II (15-45 min), flumazenil pre-treatment study
Experimental: We studied the effect of JM-20 (10, 20, 40 mg/Kg, p.o) on behaviors related to pain in a tonic pain model (5% formalin test) in rats. (Dubuisson D, Dennis S G. The formalin test: a quantitative study of the analgesic effects of morphine, meperidine and brain-stem stimulation in rats and cats. Pain 1977; 4:161-174).
Each column represents the reaction time of 6-10 animals per group as the mean±EEM, * P<0.05, ***P<0.001 represents the statistical differences between treated and control groups (only vehicle), ****P<0.05 represents statistical differences between groups treated with diazepam in the presence or absence of flumazenil, 1p<0.05 represents statistical differences between groups treated with JM-20 in the presence or absence of flumazenyl.

male Wistar rats [1] = test: Cylinder test after unilateral 6-OHDA lesion of the substantia nigra pars compacta; format: in vivo; settings: 6-OHDA damage, after 7 days of treatment
Experimental: (§1) Male adult Wistar rats were used, weighing between 200 and 250 grams at the start of the experiment, coming from the National Laboratory Animal Production Center (CENPALAB), Havana, Cuba. The animals were kept at the Center for the Research and Development of Medicines (CIDEM) in plastic translucent boxes at an average temperature of 23° C. (22±2° C.), with food and water supplies ad libitum and 12-hour periods of light and dark.
JM-20 was administered in 3 different doses: 10, 20 and 40 mg/Kg, 24 hours after inducing damage and on a daily basis for 7 days. The compound was prepared in carboxymethylcellulose (CMC) at 0.05%, intragastrically with a cannula. There were 5 experimentation groups: Group I (vehicle/saline with ascorbic acid, n=6), Group II (animals affected with 6-OHDA, n=8), Group III (animals affected with 6-OHDA and co-treated with 10 mg/Kg JM-20, n=8), Group IV (animals affected with 6-OHDA and co-treated with 20 mg/Kg JM-20, n=8) and Group V (animals affected with 6-OHDA and co-treated with 40 mg/Kg JM-20 n=8). All behavioral studies were run at 7 days.
For the purpose of proceeding to unilateral dopaminergic denervation of the striate body (right hemisphere) the rats were anesthetized with Chloral Hydrate [0.4 g/kg weight, i.p., Merck (Darmstadt, Germany)] and placed into a frame designed for stereotactic surgery (Stoelting Instruments, USA.), where they were injected in the right substantia nigra pars compacta with saline solution neurotoxin 6-OHDA-HBr (8 μg/3 μL, also containing 0.2 mg/ml of ascorbic acid as an antioxidant) (Pavón Fuentes, Nancy (2007) Efecto de la inactivación de los receptores dopaminérgicos D2 y de la manipulación del núcleo subtalámico sobre la conducta motora en modelos de hemiparkinsonismo en roedores. Doctor en Ciencias de una Especialidad, Universidad de Ciencias Médicas de La Habana). Coordinates were calculated taking Bregma as a point of reference in accordance with the Paxinos and Watson Atlas [Paxinos, G. and Watson, C., The rat brain in stereotaxic coordenates. 2nd the Academic Press. New York, 1986], referred to in Table 1. […]

male Wistar rats [2] = test: Exploratory Activity Test (vertical exploration) after unilateral 6-OHDA lesion; format: in vivo; settings: 6-OHDA damage, after 7 days of treatment, statistically different at 40 mg/Kg versus untreated injured animals
Experimental: as §1
JM-20 was administered in 3 different doses: 10, 20 and 40 mg/Kg, 24 hours after inducing damage and on a daily basis for 7 days. The compound was prepared in carboxymethylcellulose (CMC) at 0.05%, intragastrically with a cannula. […]
In order to assess the vertical exploratory activity of animals we used the Exploratory Activity Test; the animal is placed in a clear Plexiglas cubicle, 41×41×33 (h) cm, (UGO BASILE, MultipleActivityCage Cat. No. 47420. Data output is managed by 52050-04 Data Acquisition Software Package (Windows® based). The cubicle is supported on a robust base made of black Plexiglas that has 4 vertical steel bars with steel grooves so that the horizontal/vertical detection systems are correctly affixed. The sensors are IR light emission systems capable of registering animal movements by shapes, or rather vertical exploration. Data is monitored on a computer. […]

## CCOC(=O)C1=C(C)NC2=C(C=Nc3ccccc3N2)C1c1ccccc1[N+](=O)[O-] (stereo not shown) [JM-20, 3-etoxicarbonil-2-methyl-4-(2-nitrofeenil)-4,11-dihydro-1H-pirido[2,3-b][1,5] benzodiacepine]
OF-1 mice
  memory loss induced by beta amyloid 25-35 peptide oligomers: reverts memory loss
CCI rats
  histological changes induced by CCI (Wallerian degeneration): nerve fiber disorganization, cell number, myelin sheath degradation: reduced disorganization of the nerve fibers induced by CCI; also recorded: Reduction in CCI-induced nerve fiber disruption and cell count increase and myelin sheath degradation
rats
  effect on Phase II of the 5% formalin test: antihypernociceptive effect
Male Wistar rats [1]; JM-20 40 and 20 mg/Kg
  use of the paw contralateral to the damage: increased use of the paw contralateral to the damage; also recorded: increased use of contralateral leg
Male Wistar rats [1]; both doses of JM-20 (40 and 20 mg/Kg), normal values
  use of the ipsilateral paw: ~50%
Male Wistar rats [1]; versus injured animals without treatment
  % of asymmetry (cylinder test), motor damage: diminished motor damage; also recorded: decrease in motor damage
Male Wistar rats [2]
  vertical exploration: increased their vertical exploration
